The subject of the assay is IL-2 production. Put plainly: Inhibition of IL-2 production in PHA-activated Jurkat cells (ELISA). It is filed as cell-based. The note with it: Homo sapiens, Jurkat, 20 h, PHA 2.5 μg/mL, IL-2 ELISA. How it is done: Jurkat cells were placed in a 96 well plate (0.5 million cells per well in 1% FBS medium) then a test compound of this invention was added at different concentrations. After 10 minutes, the cells were activated with PHA (final concentration 2.5 μg/mL) and incubated for 20 hours at 37° C. under CO2. The final volume was 200 μL. Following incubation, the cells were centrifuged and the supernatants collected and stored at −70° C. prior to assaying for IL-2 production. A commercial ELISA kit (IL-2 Eli-pair, Diaclone Research, Besancon, France) was used to detect production of IL-2, from which dose response curves were obtained.

Counter-ions that a name gives are not always drawn. Some results are limits rather than exact numbers.

As to `CC(C)(O)c1nc(NC(=O)c2c(F)cccc2F)sc1-c1cccc(C(F)(F)F)c1` [Compound 68, 2,6-Difluoro-N-(4-(2-hydroxypropan-2-yl)-5-(3-(trifluoromethyl)phenyl)thiazol-2-yl)benzamide], the concentration for half-maximal inhibition (IC50) (as a rule, the point on the concentration scale where inhibition reaches its midpoint) was > 1000 nM. The result for `C=C(C)c1nc(NC(=O)c2c(F)cccc2F)sc1-c1cccc(C(F)(F)F)c1` [Compound 68a, 2,6-difluoro-N-(4-(prop-1-en-2-yl)-5-(3-(trifluoromethyl)phenyl)thiazol-2-yl)benzamide] reads 50 to 100 nM. With `CC(C)c1nc(NC(=O)c2c(F)cccc2F)sc1-c1cccc(C(F)(F)F)c1` [Compound 69, 2,6-Difluoro-N-(4-isopropyl-5-(3-(trifluoromethyl)phenyl)thiazol-2-yl)benzamide], the 50% inhibitory concentration (IC50) was in the range of 200 to 500 nM. As for `O=C(Nc1nc(CCl)c(-c2cccc(C(F)(F)F)c2)s1)c1c(F)cccc1F` [Compound 70, N-(4-(Chloromethyl)-5-(3-(trifluoromethyl)phenyl)thiazol-2-yl)-2,6-difluorobenzamide], the half-inhibitory concentration (IC50) was > 1000 nM. Regarding `O=C(Nc1nc(/C=N\O)c(-c2cccc(C(F)(F)F)c2)s1)c1c(F)cccc1F` [Compound 72, (Z)-2,6-difluoro-N-(4-((hydroxyimino)methyl)-5-(3-(trifluoromethyl)phenyl)thiazol-2-yl)benzamide], the IC50 is > 1000 nM. `N#Cc1nc(NC(=O)c2c(F)cccc2F)sc1-c1cccc(C(F)(F)F)c1` [Compound 73, N-(4-Cyano-5-(3-(trifluoromethyl)phenyl)thiazol-2-yl)-2,6-difluorobenzamide]: the IC50 is 200 to 500 nM. With `CC(O)c1nc(NC(=O)c2c(F)cccc2F)sc1-c1cccc(C(F)(F)F)c1` (centres unmarked) [Compound 74, 2,6-Difluoro-N-(4-(1-hydroxyethyl)-5-(3-(trifluoromethyl)phenyl)thiazol-2-yl)benzamide], the IC50 was > 1000 nM. For `C=Cc1nc(NC(=O)c2c(F)cccc2F)sc1-c1cccc(C(F)(F)F)c1` [Compound 75, 2,6-Difluoro-N-(5-(3-(trifluoromethyl)phenyl)-4-vinylthiazol-2-yl)benzamide], the 50% inhibitory concentration (IC50) was in the range of 200 to 500 nM. `O=C(Nc1nc(-c2cnco2)c(-c2cccc(C(F)(F)F)c2)s1)c1c(F)cccc1F` [Compound 76, 2,6-Difluoro-N-(4-(oxazol-5-yl)-5-(3-(trifluoromethyl)phenyl)thiazol-2-yl)benzamide] displayed a 50% inhibitory concentration (IC50) of 50 to 100 nM. `O=C(Nc1nc(C2=NCCN2)c(-c2cccc(C(F)(F)F)c2)s1)c1c(F)cccc1F` [Compound 77, N-(4-(4,5-Dihydro-1H-imidazol-2-yl)-5-(3-(trifluoromethyl)phenyl)thiazol-2-yl)-2,6-difluorobenzamide]: the 50% inhibitory concentration (IC50) was > 1000 nM. Next, `O=C(Nc1nc(-c2ncc[nH]2)c(-c2cccc(C(F)(F)F)c2)s1)c1c(F)cccc1F` [Compound 78, N-(4-(1H-Imidazol-2-yl)-5-(3-(trifluoromethyl)phenyl)thiazol-2-yl)-2,6-difluorobenzamide hydrochloride]: > 1000 nM; `Cn1cncc1-c1nc(NC(=O)c2c(F)cccc2F)sc1-c1cccc(C(F)(F)F)c1` [Compound 80, 2,6-Difluoro-N-(4-(1-methyl-1H-imidazol-5-yl)-5-(3-(trifluoromethyl)phenyl)thiazol-2-yl)benzamide]: > 1000 nM; `Cc1nc(C)c(-c2nc(NC(=O)c3c(F)cccc3F)sc2-c2cccc(C(F)(F)F)c2)o1` [Compound 81, N-(4-(2,4-dimethyloxazol-5-yl)-5-(3-(trifluoromethyl)phenyl)thiazol-2-yl)-2,6-difluorobenzamide]: > 1000 nM. Consider `O=C(Nc1nc(C(O)c2ccccn2)c(-c2cccc(C(F)(F)F)c2)s1)c1c(F)cccc1F` (centres unmarked) [Compound 83, 2,6-difluoro-N-(4-(hydroxy(pyridin-2-yl)methyl)-5-(3-(trifluoromethyl)phenyl)thiazol-2-yl)benzamide], for which the IC50 is > 1000 nM. Take `CC(=O)c1nc(NC(=O)c2c(F)cccc2F)sc1-c1cccc(C(F)(F)F)c1` [Compound 84, N-(4-Acetyl-5-(3-(trifluoromethyl)phenyl)thiazol-2-yl)-2,6-difluorobenzamide]: the IC50 lay in the range of 200 to 500 nM. Next, `Cc1nc(-c2nc(NC(=O)c3c(F)cccc3F)sc2-c2cccc(C(F)(F)F)c2)cs1` [Compound 86, 2,6-Difluoro-N-(2′-methyl-5-(3-(trifluoromethyl)phenyl)-4,4′-bithiazol-2-yl)benzamide]: 200 to 500 nM. Take `Nc1nc(-c2nc(NC(=O)c3c(F)cccc3F)sc2-c2cccc(C(F)(F)F)c2)cs1` [Compound 87, N-(2′-amino-5-(3-(trifluoromethyl)phenyl)-4,4′-bithiazol-2-yl)-2,6-difluorobenzamide]: the IC50 is > 1000 nM. In the case of `O=C(Nc1nc(C2=NCCO2)c(-c2cccc(C(F)(F)F)c2)s1)c1c(F)cccc1F` [Compound 89, N-(4-(4,5-dihydrooxazol-2-yl)-5-(3-(trifluoromethyl)phenyl)thiazol-2-yl)-2,6-difluorobenzamide], the IC50 is 200 to 500 nM. The result for `O=C(Nc1nc(-c2nnco2)c(-c2cccc(C(F)(F)F)c2)s1)c1c(F)cccc1F` [Compound 90, N-(4-(1,3,4-oxadiazol-2-yl)-5-(3-(trifluoromethyl)phenyl)thiazol-2-yl)-2,6-difluorobenzamide] reads 200 to 500 nM. For `O=C(Nc1nc(-c2ncco2)c(-c2cccc(C(F)(F)F)c2)s1)c1c(F)cccc1F` [Compound 91, 2,6-difluoro-N-(4-(oxazol-2-yl)-5-(3-(trifluoromethyl)phenyl)thiazol-2-yl)benzamide], the half-maximal inhibitory concentration (IC50) was in the range of 50 to 100 nM.

`Cc1noc(-c2nc(NC(=O)c3c(F)cccc3F)sc2-c2cccc(C(F)(F)F)c2)n1` [Compound 92, 2,6-difluoro-N-(4-(3-methyl-1,2,4-oxadiazol-5-yl)-5-(3-(trifluoromethyl)phenyl)thiazol-2-yl)benzamide] came in with an IC50 of 200 to 500 nM. For `CON(C)C(=O)c1nc(NC(=O)c2c(F)cccc2F)sc1-c1cccc(C(F)(F)F)c1` [Compound 93, 2-(2,6-difluorobenzamido)-N-methoxy-N-methyl-5-(3-(trifluoromethyl)phenyl)thiazole-4-carboxamide], the IC50 was > 1000 nM.

Turning to `CCC(=O)c1nc(NC(=O)c2c(F)cccc2F)sc1-c1cccc(C(F)(F)F)c1` [Compound 94, 2,6-difluoro-N-(4-propionyl-5-(3-(trifluoromethyl)phenyl)thiazol-2-yl)benzamide], the IC50 was in the range of 50 to 100 nM. Take `Cc1nc(-c2nc(NC(=O)c3c(F)cccc3F)sc2-c2cccc(C(F)(F)F)c2)c(C)s1` [Compound 95, N-(2′,5′-dimethyl-5-(3-(trifluoromethyl)phenyl)-4,4′-bithiazol-2-yl)-2,6-difluorobenzamide]: the IC50 is > 1000 nM. As to `CCOC(=O)c1nc(-c2nc(NC(=O)c3c(F)cccc3F)sc2-c2cccc(C(F)(F)F)c2)c(C)s1` [Compound 96, Ethyl 2′-(2,6-difluorobenzamido)-5-methyl-5′-(3-(trifluoromethyl)phenyl)-4,4′-bithiazole-2-carboxylate], the IC50 is > 1000 nM. On to `NC(=O)c1nc(NC(=O)c2c(F)cccc2F)sc1-c1cccc(C(F)(F)F)c1` [Compound 97, 2-(2,6-Difluorobenzamido)-5-(3-(trifluoromethyl)phenyl)thiazole-4-carboxamide], for which the concentration for half-maximal inhibition (IC50) was > 1000 nM.

Values taken from patent publication US8455658B2, “Thiazole and thiadiazole compounds for inflammation and immune-related uses” (Synta Pharmaceuticals Corp., priority 2006, dated 2013).
